{"source": "patent US11161837B2", "about": "“Benzofuran derivatives for the treatment of hepatitis C” (BRISTOL-MYERS SQUIBB COMPANY, priority 2016, dated 2021)"}
{"test_system": "genotype 1b (Con-1) HCV replicon in Huh-7 cells", "assay": "HCV replicon luciferase assay", "type": "cell-based", "conditions": "1b replicon, Huh-7, Renilla luciferase, 3 days incubation", "experimental": "(§1) The cell lines used to evaluate compounds consist of a human hepatocyte derived cell line (Huh-7) that constitutively expresses a genotype 1b (Con-1) HCV replicon or a genotype 1b (Con-1) HCV replicon with an asparagine replacing the cysteine at amino acid 316, or a genotype 2a (JFH-1) replicon, containing a Renilla luciferase reporter gene. These cells were maintained in Dulbecco's modified Eagle medium (DMEM) containing 10% FBS, 100 U/mL penicillin/streptomycin and 1.0 mg/mL G418.\n(§2) HCV Replicon Luciferase Assay.\n(§3) To evaluate compound efficacy, titrated compounds were transferred to sterile 384-well tissue culture treated plates, and the plates were seeded with HCV replicon cells (50 μL at a density of 2.4×10^3 cells/well) in DMEM containing 4% FBS (final DMSO concentration at 0.5%). After 3 days incubation at 37° C., cells were analyzed for Renilla Luciferase activity using the EnduRen substrate (Promega cat # E6485) according to the manufacturer's directions. Briefly, the EnduRen substrate was diluted in DMEM and then added to the plates to a final concentration of 7.5 μM. The plates were incubated for at least 1 h at 37° C. then read on a Viewlux Imager (PerkinElmer) using a luminescence program. The 50% effective concentration (EC50) was calculated using the four-parameter logistic formula noted above.", "units": {"EC50": "nM"}}
{"smiles": "CCCc1cc2oc(-c3ccc(F)cc3)c(C(=O)NC)c2cc1-c1cccc(C(=O)NC2(C)CC(OC(F)F)C2)c1", "note": "(single isomer, unassigned) [Example 55b, 5-(3-((3-(Difluoromethoxy)-1-methylcyclobutyl)carbamoyl)phenyl)-2-(4-fluorophenyl)-N-methyl-6-propylbenzofuran-3-carboxamide]", "EC50": 30}
{"smiles": "CCCc1cc2oc(-c3ccc(F)cc3)c(C(=O)NC)c2cc1-c1cc(C(=O)NC2(C)CC(OC(F)F)C2)c(OC)cc1C", "note": "(single isomer, unassigned) [Example 57b, 5-(5-((3-(Difluoromethoxy)-1-methylcyclobutyl)carbamoyl)-4-methoxy-2-methylphenyl)-2-(4-fluorophenyl)-N-methyl-6-propylbenzofuran-3-carboxamide]", "EC50": 70}
{"smiles": "CCCc1cc2oc(-c3ccc(F)cc3)c(C(=O)NC)c2cc1-c1ccc(F)c(C(=O)NC2(C)CC(OC(F)F)C2)c1", "note": "(single isomer, unassigned) [Example 61b, 5-(3-((3-(Difluoromethoxy)-1-methylcyclobutyl)carbamoyl)-4-fluorophenyl)-2-(4-fluorophenyl)-N-methyl-6-propylbenzofuran-3-carboxamide]", "EC50": 20}
{"smiles": "CCOc1cc2oc(-c3ccc(F)cc3)c(C(=O)NC)c2cc1-c1cccc(C(=O)NC2(c3ncccn3)CC(OC(F)F)C2)c1", "note": "(single isomer, unassigned) [Example 67a, 5-(3-((3-(Difluoromethoxy)-1-(pyrimidin-2-yl)cyclobutyl)carbamoyl)phenyl)-6-ethoxy-2-(4-fluorophenyl)-N-methylbenzofuran-3-carboxamide]", "EC50": 30}
{"test_system": "genotype 1b (Con-1) HCV replicon in Huh-7 cells", "assay": "HCV replicon luciferase assay", "type": "cell-based", "conditions": "Hepatitis C virus, Huh-7, 72 h, 1b replicon, Huh-7, Renilla luciferase, 3 days incubation", "experimental": "as §1, §2, §3", "units": {"EC50": "nM"}}
{"smiles": "CNC(=O)c1c(-c2ccc(F)cc2)oc2cc(CCC(F)(F)F)c(-c3cccc(C(=O)NC4(C)CC(OC(F)F)C4)c3)cc12", "note": "(single isomer, unassigned) [Example 59a, 5-(3-((3-(Difluoromethoxy)-1-methylcyclobutyl)carbamoyl)phenyl)-2-(4-fluorophenyl)-N-methyl-6-(3,3,3-trifluoropropyl)benzofuran-3-carboxamide]", "EC50": 30}
{"smiles": "CCCc1cc2oc(-c3ccc(F)cc3)c(C(=O)NC)c2cc1-c1ccc(F)c(C(=O)NC2(C)CC(OC(F)F)C2)c1", "note": "(single isomer, unassigned) [Example 61a, 5-(3-((3-(Difluoromethoxy)-1-methylcyclobutyl)carbamoyl)-4-fluorophenyl)-2-(4-fluorophenyl)-N-methyl-6-propylbenzofuran-3-carboxamide]", "EC50": 20}
{"smiles": "CNC(=O)c1c(-c2ccc(F)cc2)oc2cc(CCC(F)(F)F)c(-c3ccc(F)c(C(=O)NC4(C)CC(OC(F)F)C4)c3)cc12", "note": "(single isomer, unassigned) [Example 63a, 5-(3-((3-(Difluoromethoxy)-1-methylcyclobutyl)carbamoyl)-4-fluorophenyl)-2-(4-fluorophenyl)-N-methyl-6-(3,3,3-trifluoropropyl)benzofuran-3-carboxamide]", "EC50": 10}
{"smiles": "CCN(c1cc2oc(-c3ccc(F)cc3)c(C(=O)NC)c2c(F)c1-c1cccc(C(=O)NC2(c3ncccn3)CC(OC(F)F)C2)c1)S(C)(=O)=O", "note": "(centres unmarked) [Example 21, 5-(3-((3-(Difluoromethoxy)-1-(pyrimidin-2-yl)cyclobutyl)carbamoyl)phenyl)-6-(N-ethylmethylsulfonamido)-4-fluoro-2-(4-fluorophenyl)-N-methylbenzofuran-3-carboxamide]", "EC50": 2.23}
{"smiles": "CCN(c1cc2oc(-c3ccc(F)cc3)c(C(=O)NC)c2c(F)c1-c1cccc(C(=O)NC2(c3ncccn3)CC(F)C2)c1)S(C)(=O)=O", "note": "(centres unmarked) [Example 22, 6-(N-ethylmethylsulfonamido)-4-fluoro-5-(3-((3-fluoro-1-(pyrimidin-2-yl)cyclobutyl)carbamoyl)phenyl)-2-(4-fluorophenyl)-N-methylbenzofuran-3-carboxamide]", "EC50": 4.94}
{"smiles": "CCN(c1cc2oc(-c3ccc(F)cc3)c(C(=O)NC)c2cc1-c1cccc(C(=O)NC2(c3ncccn3)CC(OC(F)F)C2)c1)S(C)(=O)=O", "note": "(centres unmarked) [Example 24, 5-(3-((3-(difluoromethoxy)-1-(pyrimidin-2-yl)cyclobutyl)carbamoyl)phenyl)-6-(N-ethylmethylsulfonamido)-2-(4-fluorophenyl)-N-methylbenzofuran-3-carboxamide]", "EC50": 2.2}
{"smiles": "CCN(c1cc2oc(-c3ccc(F)cc3)c(C(=O)NC)c2c(F)c1-c1ccc(OC)c(C(=O)NC2(c3ncccn3)CC(F)C2)c1)S(C)(=O)=O", "note": "(centres unmarked) [Example 26, 6-(N-ethylmethylsulfonamido)-4-fluoro-5-(3-((3-fluoro-1-(pyrimidin-2-yl)cyclobutyl)carbamoyl)-4-methoxyphenyl)-2-(4-fluorophenyl)-N-methylbenzofuran-3-carboxamide]", "EC50": 2.25}
{"smiles": "CCCc1cc2oc(-c3ccc(F)cc3)c(C(=O)NC)c2cc1-c1ccc(F)c(C(=O)NC2(c3ncccn3)CC(OC(F)F)C2)c1", "note": "(centres unmarked) [Example 32, 5-(3-((3-(Difluoromethoxy)-1-(pyrimidin-2-yl)cyclobutyl)carbamoyl)-4-fluorophenyl)-2-(4-fluorophenyl)-N-methyl-6-propylbenzofuran-3-carboxamide]", "EC50": 9.02}
{"smiles": "CCCc1cc2oc(-c3ccc(F)cc3)c(C(=O)NC)c2cc1-c1cccc(C(=O)NC2(c3ncccn3)CC(OC(F)F)C2)c1", "note": "(centres unmarked) [Example 33, 5-(3-((3-(Difluoromethoxy)-1-(pyrimidin-2-yl)cyclobutyl)carbamoyl)phenyl)-2-(4-fluorophenyl)-N-methyl-6-propylbenzofuran-3-carboxamide]", "EC50": 4.55}
{"smiles": "CCCc1cc2oc(-c3ccc(F)cc3)c(C(=O)NC)c2cc1-c1ccc(OC)c(C(=O)NC2(c3ncccn3)CC(OC(F)F)C2)c1", "note": "(centres unmarked) [Example 37]", "EC50": 6.08}
{"smiles": "CCCc1cc2oc(-c3ccc(F)cc3)c(C(=O)NC)c2cc1-c1cc(C(=O)NC2(c3ncccn3)CC(OC(F)F)C2)c(OC)cc1C", "note": "(centres unmarked) [Example 39, 5-(5-((3-(Difluoromethoxy)-1-(pyrimidin-2-yl)cyclobutyl)carbamoyl)-4-methoxy-2-methylphenyl)-2-(4-fluorophenyl)-N-methyl-6-propylbenzofuran-3-carboxamide]", "EC50": 20}
{"smiles": "CNC(=O)c1c(-c2ccc(F)cc2)oc2cc(CCC(F)(F)F)c(-c3cc(C(=O)NC4(c5ncccn5)CC(OC(F)F)C4)c(OC)cc3C)cc12", "note": "(centres unmarked) [Example 41, 5-(5-((3-(Difluoromethoxy)-1-(pyrimidin-2-yl)cyclobutyl)carbamoyl)-4-methoxy-2-methylphenyl)-2-(4-fluorophenyl)-N-methyl-6-(3,3,3-trifluoropropyl)benzofuran-3-carboxamide]", "EC50": 20}
{"smiles": "CCOc1cc2oc(-c3ccc(F)cc3)c(C(=O)NC)c2cc1-c1cccc(C(=O)NC2(c3ncon3)CC(OC(F)F)C2)c1", "note": "(centres unmarked) [Example 70, 5-(3-((3-(Difluoromethoxy)-1-(1,2,4-oxadiazol-3-yl)cyclobutyl)carbamoyl)phenyl)-6-ethoxy-2-(4-fluorophenyl)-N-methylbenzofuran-3-carboxamide]", "EC50": 6.47}
